From patent US12350250B2, “Aggrelytes for treating ocular conditions” (The Regents of the University of Colorado, a Body Corporate, priority 2022, dated 2025)

Legend:
Experiment in all cases: Identification of AcK sites in proteins of Aggrelyte-2-treated lens (AcK peptide enrichment, LC-MS/MS)
Set-up in all cases: key to Fold Change (Aggrelyte-2 vs Control) [Total Sum]: *: were not detected in the control lens but were prominent in the Aggrelyte-2-treated lens
[1] = target: T1, human lens cortical proteins (Homo sapiens, UniProt Q71U36); conditions: Tubulin alpha-1A chain K370
T1 construct: from tissue; host or cells: cortex of a human lens from a donor, treated ex vivo
T1 sequence (Q71U36 whole entry): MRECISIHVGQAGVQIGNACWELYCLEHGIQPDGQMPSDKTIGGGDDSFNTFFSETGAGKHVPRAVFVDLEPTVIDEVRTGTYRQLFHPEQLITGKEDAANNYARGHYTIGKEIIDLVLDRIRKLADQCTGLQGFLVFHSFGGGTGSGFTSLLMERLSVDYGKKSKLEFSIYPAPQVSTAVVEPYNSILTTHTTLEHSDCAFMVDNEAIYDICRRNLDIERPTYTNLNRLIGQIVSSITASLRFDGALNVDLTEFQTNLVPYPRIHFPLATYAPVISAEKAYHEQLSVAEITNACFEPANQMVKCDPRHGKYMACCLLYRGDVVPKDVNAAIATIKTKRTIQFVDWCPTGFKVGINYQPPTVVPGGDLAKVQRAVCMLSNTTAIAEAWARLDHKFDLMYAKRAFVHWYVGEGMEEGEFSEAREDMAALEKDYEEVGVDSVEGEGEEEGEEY
Experimental: (§1) The AcK modification sites and relative levels at those sites in the Aggrelyte-2-treated and untreated (control) human lens cortical proteins were evaluated in the lens (from a donor) that had the largest overall AcK differential measured by Western blot analysis (blot not shown; densitometric summary in FIG. 14B) and LC-MS/MS (FIG. 15B). Each sample (315 μg) was spiked with 200 ng of acetylated bovine serum albumin (AcBSA) protein standard, reduced, alkylated, and digested with trypsin using a urea-based method and then desalted using a C18 resin before being lyophilized. The samples were then immunoprecipitated according to the manufacturer's protocol for the PTMScan Acetyl-Lysine Motif Kit No. 13416 (Cell Signaling Technology). Peptides were purified with a Pierce C18 spin column (Thermo Fisher Scientific) and dried in a Speed Vac concentrator at 45° C. The peptides were resuspended in 3% acetonitrile in 0.1% formic acid for MS analysis.
(§2) The enriched AcK-bearing peptides were loaded onto a 2 cm PepMap 100 nanoviper trapping column and chromatographically resolved with a 0.075×250 mm, […] Acclaim PepMap RSLC reversed-phase nanocolumn (Thermo Scientific) using a 1290 Infinity II LC system equipped with a nanoadapter (Agilent). The mobile phase consisted of water+0.1% formic acid (A) and 90% aqueous acetonitrile+0.1% formic acid (B). Samples were loaded onto the trapping column at 3.0 μL/min for 3.5 min under initial conditions before being chromatographically separated at an effective flow rate of 330 nL/min using a gradient of 3-8% B over 3 min, 8-30% B over 33 min, and 30-40% B over 4 min at 40° C. The gradient was followed by a column wash at 75% B for 5 min. Data were collected using a 6550 Q-TOF equipped with a nanosource (Agilent Technologies) operated using intensity-dependent CID MS/MS to generate peptide identifications. MS/MS data were collected in positive ion polarity over a mass range of 290-1700 m/z at a scan rate of 8 spectra/second for MS scans and a mass range of 50-1700 m/z at a scan rate of 3 spectra/second for MS/MS scans. All charge states, except singly charged species, were allowed during MS/MS acquisition.
(§3) Tandem mass spectra were extracted, searched, and summarized using PEAKS X+ Studio 10.5 software (Bioinformatics Solutions Inc., Waterloo, Ontario). The spectra were searched against the UniProtKB SwissProt [2022_02] Homo sapiens database, allowing for up to three missed semitryptic cleavages with fixed carbamidomethylation of cysteine and a maximum of four variable modifications of deamidation of asparagine and glutamine, oxidation of methionine and/or acetylation of lysine per peptide. The allowed monoisotopic peptide mass tolerance was ±15.0 ppm, and the MS/MS tolerance was ±0.05 da. A false discovery rate (FDR) filter of 0.5% was used corresponding to a −10 log P score ≥19.3.
(§4) The MS-only level data from the LC-MS/MS analyses were extracted and aligned using Profinder V.B.10.01 software (Agilent Technologies). Retention times, neutral masses, and chemical formulas generated from identified acetyl peptides were used to perform batch-targeted feature extraction. Data were extracted with an ion count threshold of two or more ions, 5000 counts, and a score threshold of 70. The score was based on the quality of the mass accuracy, isotope abundances, and isotope spacing of compounds based on the chemical formula of the target peptides within a specified retention time window. Using the peptide isotope model, charge states 2-6 were allowed with H^+ and Na^+ charge carriers. The retention time window and mass window alignment tolerances were set to 0.4 min and 10 ppm, respectively. The extracted peptide peak areas were then used to determine a fold change value in the treated vs. control samples to help identify potential AcK sites that may be affected by aggrelyte-2. Due to a lack of statistical power, a three-fold change filter was used as a sufficient cutoff to identify potential AcK sites of interest. […]

[2] = system: human lens cortical proteins
Experimental: as §1, §2, §3, §4

[3] = target: T2, human lens cortical proteins (Homo sapiens, UniProt P02489); conditions: for Aggrelyte-2 treated Area: lens of donor
T2 construct: from tissue; host or cells: cortex of a human lens from a donor, treated ex vivo
T2 sequence (P02489 1-173): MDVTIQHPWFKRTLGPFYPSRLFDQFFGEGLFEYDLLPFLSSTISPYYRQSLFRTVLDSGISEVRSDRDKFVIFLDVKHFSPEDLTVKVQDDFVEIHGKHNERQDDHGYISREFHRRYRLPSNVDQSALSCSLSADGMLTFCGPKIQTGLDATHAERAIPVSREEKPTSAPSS
Experimental: as §1, §2, §3, §4

[4] = target: T3, human lens cortical proteins (Homo sapiens, UniProt P32320); conditions: Cytidine deaminase K51
T3 construct: from tissue; host or cells: cortex of a human lens from a donor, treated ex vivo
T3 sequence (P32320 whole entry): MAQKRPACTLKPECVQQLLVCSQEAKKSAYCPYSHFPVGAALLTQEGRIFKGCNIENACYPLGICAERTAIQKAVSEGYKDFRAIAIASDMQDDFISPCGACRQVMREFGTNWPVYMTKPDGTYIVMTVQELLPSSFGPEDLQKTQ
Experimental: as §1, §2, §3, §4

Fold Change (Aggrelyte-2 vs Control) [Total Sum] [1]: *
Aggrelyte-2 treated Area ([1]; lens of donor): 4.24E+04
Fold Change (Aggrelyte-2 vs Control) [Total Sum] ([3]; AlphaA-crystallin K70): 3.13
Aggrelyte-2 treated Area ([3]; AlphaA-crystallin K70): 8.80E+06
Fold Change (Aggrelyte-2 vs Control) [Total Sum] ([3]; AlphaA-crystallin K88): *
Aggrelyte-2 treated Area ([3]; AlphaA-crystallin K88): 1.11E+05
Fold Change (Aggrelyte-2 vs Control) [Total Sum] [4]: 3.66
Aggrelyte-2 treated Area ([4]; lens of donor): 7.26E+05
Compound: COC(=O)[C@H](CSC(C)=O)NC(C)=O [Aggrelyte-2, N,S-diacetyl-L-cysteine methyl ester]
Aggrelyte-2 treated Area ([2]; Acetylated Bovine Serum Albumin Standard Spike at 200 ng in each sample (workup control), 17 peptides summed): 3.68E+07
Fold Change (Aggrelyte-2 vs Control) [Total Sum] ([2]; Actin cytoplasmic 1 K61): 3.48
Aggrelyte-2 treated Area ([2]; Actin cytoplasmic 1 K61, lens of donor): 7.63E+04
Fold Change (Aggrelyte-2 vs Control) [Total Sum] ([2]; Actin cytoplasmic 1 K213): 3.53
Aggrelyte-2 treated Area ([2]; Actin cytoplasmic 1 K213, lens of donor): 1.03E+05
Fold Change (Aggrelyte-2 vs Control) [Total Sum] ([2]; AlphaB-crystallin K72): 3.56
Aggrelyte-2 treated Area ([2]; AlphaB-crystallin K72, lens of donor): 6.31E+05
Fold Change (Aggrelyte-2 vs Control) [Total Sum] ([2]; AlphaB-crystallin K174): 7.41
Aggrelyte-2 treated Area ([2]; AlphaB-crystallin K174, lens of donor): 5.84E+06
Fold Change (Aggrelyte-2 vs Control) [Total Sum] ([2]; BetaB2-crystallin K42): 25.80
Aggrelyte-2 treated Area ([2]; BetaB2-crystallin K42, lens of donor): 6.98E+05
Fold Change (Aggrelyte-2 vs Control) [Total Sum] ([2]; Filensin K360): 3.94
Aggrelyte-2 treated Area ([2]; Filensin K360, lens of donor): 1.16E+05
Fold Change (Aggrelyte-2 vs Control) [Total Sum] ([2]; Glyceraldehyde-3-phosphate dehydrogenase K263): 3.18
Aggrelyte-2 treated Area ([2]; Glyceraldehyde-3-phosphate dehydrogenase K263, lens of donor): 1.04E+05
Fold Change (Aggrelyte-2 vs Control) [Total Sum] ([2]; Peroxiredoxin-6 K56): 3.26
Aggrelyte-2 treated Area ([2]; Peroxiredoxin-6 K56, lens of donor): 5.83E+05
Fold Change (Aggrelyte-2 vs Control) [Total Sum] ([2]; Phakinin K400): 14.48
Aggrelyte-2 treated Area ([2]; Phakinin K400, lens of donor): 2.21E+05
Fold Change (Aggrelyte-2 vs Control) [Total Sum] ([2]; Retinal dehydrogenase 1 K495): 9.12
Aggrelyte-2 treated Area ([2]; Retinal dehydrogenase 1 K495, lens of donor): 9.11E+04
